Experimental findings from patent publication US7514432B2, “Compounds and methods of treating cell proliferative diseases, retinopathies and arthritis” (Exonhit Therapeutics SA, priority 2003, dated 2009) are described below.

In one test the test system is HCT116. The test can be described thus: Cell viability assay (MTT), HCT116. The following applies: 1% DMSO. The format is cell-based, human. The gist of the method: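 Cells seeded 24 h before treatment with 0–200 μM compound (11 concentrations, 1% DMSO final) in 10% or 0.5% FBS medium; exposure 16 h, 3 or 6 days, fed every 3 days in 6-day runs. MTT 0.5 mg/ml read at 550 nm; IC50 from dose-response curves, mean±SEM.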

The next test relates to NIH3T3. As to the kind of experiment: Boyden chamber migration assay, NIH3T3. The conditions noted are these: Mus musculus, FBS as chemoattractant. In kind it is cell-based, mouse. The method, then: FIG. 4: Migration assays. (A) Wound healing assay in REF cells. 7.6 10^4 cells were plated on coverslips 48 hours before the experiment. The cells were pre-treated for 30 min. with the compounds, and then a scrape was done using a pipette tip. The scraped coverslips in treatment medium were put under a thermostated microscope coupled to a video camera. Movies were analyzed as described in material and methods, and velocity and total distance covered by the cells were evaluated. Bar graphs represent the mean±SEM of 2 to 4 experiments. (B) Boyden chamber migration assay in HMEC1, NIH3T3 and MDA-MB-231 cells. 5 10^4 to 7.5 10^4 Cells, resuspended in culture medium with or without FBS and with different compound concentrations, were seeded in the upper Boyden blind well on top of 8 μm pore-sized filters. The ability of the cells to migrate through the filter was assayed in the absence or presence of FBS in the lower Boyden chamber. After 16 hours incubation, the medium was removed and replaced with calcein-AM containing medium. After labeling, cells were washed with HBSS and fluorescence was read in a fluorescence plate reader. Fluorescence values were normalized against the fluorescence obtained for the 1% DMSO control. The data plotted are the means±SEM of 2 to 4 independent experiments.
An essential characteristic of malignant cells is their ability to migrate, invade host tissues and to produce metastases. In order to evaluate the capacity of one compound to affect the ability of tumoral cells to migrate, migration assays were performed using highly invasive tumoral cells MDA-MB-231, endothelial cells HMEC1 or fibroblastic cells NIH3T3. This assay was performed using Falcon HTS Fluoroblock inserts. Culture medium containing Fetal Bovine Serum (FBS; which is used as a chemoattractant) was added to the plate wells and 2 10^4 to 7.5 10^4 cells resuspended in medium without FBS and with 0.1% BSA were added to each insert well. The compound of interest was added to the medium in both the upper and the lower chambers. Plates were incubated for 16 hours at 37° C. Following incubation, the medium was removed from the upper chamber and the entire insert plate was transferred to a second 24-well plate containing 4 μg/ml Calcein-AM™ in medium containing 0.1% BSA. The plates were incubated for one hour at 37° C., rinsed with Hanks Buffered Saline (HBSS). Fluorescence data were collected using Fluoroskan Ascent FL fluorescence plate reader at an excitation wavelength (Ex) of 485 nm and emission wavelength (Em) of 517 nm. Only those labelled cells that passed through the Matrigel layer and the membrane were detected. Data were analyzed using the GraphPad Prism software and IM50s (dose at which 50% inhibition of cell migration is observed) were calculated.

Setting [1] is: Homo sapiens, HCT-116, 16 h, 10% FBS, 16-hours treatment.
The mark [2] stands for this setting: Homo sapiens, HCT-116, 72 h, 10% FBS, 3-day treatment.
Where [3] appears, read: Homo sapiens, HCT-116, 144 h, 0.5% FBS, 6-day treatment.
Setting [4] is: Homo sapiens, HCT-116, 144 h, 10% FBS, 6-day treatment.
The mark [5] stands for this setting: 10% FBS, 6-day treatment, trihydrochloride.

Broadly, the IC50 is the point on the concentration scale where inhibition reaches its midpoint. Read a low IC50 as greater potency in that assay.

Each structure is given as a SMILES string. A value given as a limit tells only on which side of the number the result lay.

For the compound `Cl.Cl.O=c1cc(CN2CCOCC2)occ1OCCCCCSc1ccnc2cc(C(F)(F)F)ccc12` [EHT 1864, 5-(5-(7-(Trifluoromethyl)quinolin-4-ylthio)pentyloxy)-2-(morpholinomethyl)-4H-pyran-4-one dihydrochloride], the 50% inhibitory concentration (IC50) is 2.7 µM in the test on HCT116 (10% FBS, 6-day treatment, dihydrochloride); 37 µM in the test with HCT116 (setting [1]); 6.1 µM in the test with HCT116 (setting [2]); 6.6 µM in the test on HCT116 (setting [3]); below 4 µM in the test with HCT116 (setting [4]); 20.4 ± 3.5 µM with NIH3T3 (NIH3T3, 16 hours).
As to `CN1CCN(Cc2cc(=O)c(OCCCCCSc3ccnc4cc(C(F)(F)F)ccc34)co2)CC1.Cl.Cl.Cl` [EHT 9241, 5-(5-(7-(Trifluoromethyl)quinolin-4-ylthio)pentyloxy)-2-((4-methylpiperazin-1-yl)methyl)-4H-pyran-4-one trihydrochloride], the IC50 in the test with HCT116 (setting [5]) was 4 µM; with HCT116 (setting [1]), 31.3 µM; in the test on HCT116 (setting [2]), 5.7 µM; in the test with HCT116 (setting [3]), 6.2 µM; in the test on HCT116 (setting [4]) it was below 4 µM; with NIH3T3 (NIH3T3, 16 h), 4.7 ± 0.6 µM.
On to `Cl.Cl.Cl.O=c1cc(CN2CCNCC2)occ1OCCCCCSc1ccnc2cc(C(F)(F)F)ccc12` [EHT 8560, 5-(5-(7-(Trifluoromethyl)quinolin-4-ylthio)pentyloxy)-2-((piperazin-1-yl)methyl)-4H-pyran-4-one trihydrochloride], for which the IC50 is 3.8 µM in the test on HCT116 (setting [5]); 4 µM with HCT116 (setting [2]); 4.6 µM in the test on HCT116 (setting [3]); below 4 µM in the test with HCT116 (setting [4]); 10 ± 0.6 µM in the test with NIH3T3 (NIH3T3, 16 h).
